Test results taken from ChEMBL document CHEMBL1201862, “PubChem BioAssay data set” (2004).
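These data come from cells grown in 96-well plates and exposed to compound for 48 hours at five concentrations. GI50 marks 50% less growth.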 Calls of active or inactive are those of the source. Cut-off read from the data, not from the text of the source: active = GI50 up to about 1.1 µM and inactive = higher.

Assays:
Test in all cases: inhibition of tumour cell growth, NCI panel, 48 h
ACHN = tested on: ACHN
CCRF-CEM = tested on: CCRF-CEM
EKVX = tested on: EKVX
HCT-116 = tested on: HCT-116
HOP-92 = tested on: HOP-92
Hs-578T = tested on: Hs-578T
IGROV-1 = tested on: IGROV-1
MDA-MB-231 = tested on: MDA-MB-231
Malme-3M = tested on: Malme-3M
NCI-H23 = tested on: NCI-H23
NCI-H522 = tested on: NCI-H522
OVCAR-8 = tested on: OVCAR-8
PC-3 = tested on: PC-3
RXF 393 = tested on: RXF 393
SF-268 = tested on: SF-268
SF-539 = tested on: SF-539
SK-MEL-5 = tested on: SK-MEL-5
T47D = tested on: T47D
HL-60 = tested on: HL-60

Measured: GI50

O=C(O)c1cccc(/[As]=[As]\c2cccc(C(=O)O)c2)c1 (stereo not drawn)
inactive: ACHN 73.3 µM | CCRF-CEM 21.9 µM | EKVX 59.8 µM | HCT-116 36.9 µM | HOP-92 18.7 µM | Hs-578T 33.8 µM | IGROV-1 34.2 µM | MDA-MB-231 21.6 µM | Malme-3M 21.4 µM | NCI-H23 31 µM | NCI-H522 17.9 µM | OVCAR-8 34.6 µM | PC-3 16.9 µM | RXF 393 26.9 µM | SF-268 29.3 µM | SF-539 16.6 µM | SK-MEL-5 32.7 µM | T47D 34.9 µM

COc1ccccc1/C=N/N=C(\N)NO
inactive: ACHN 8.22 µM | CCRF-CEM 16.7 µM | EKVX 18.9 µM | HCT-116 25.6 µM | HOP-92 11 µM | IGROV-1 96.4 µM | Malme-3M 30 µM | NCI-H23 45.2 µM | NCI-H522 18.7 µM | OVCAR-8 > 10 µM | RXF 393 28 µM | SF-268 20.5 µM | SF-539 3.03 µM | SK-MEL-5 2.77 µM

O=c1c(-c2ccc3c(c2)OCO3)coc2c3c(ccc12)OCO3
inactive: ACHN 18.5 µM | CCRF-CEM > 100 µM | EKVX 38 µM | HCT-116 33 µM | HL-60 > 100 µM | HOP-92 18 µM | Hs-578T 22.3 µM | IGROV-1 20.8 µM | MDA-MB-231 21.5 µM | NCI-H23 19.2 µM | NCI-H522 18.3 µM | PC-3 75.9 µM | SF-268 19.1 µM | SF-539 20 µM | SK-MEL-5 > 100 µM | T47D 37.8 µM

CC(C)C1=C(O)C(=O)C2=C(C1=O)C(O)CC1C(C)(C)CCCC21C (stereo not drawn)
inactive: ACHN 3.85 µM | CCRF-CEM 6.71 µM | EKVX 6.56 µM | HCT-116 4.26 µM | HL-60 14.9 µM | HOP-92 3.61 µM | Hs-578T 3.88 µM | IGROV-1 15.8 µM | MDA-MB-231 2.84 µM | Malme-3M 3.87 µM | NCI-H23 1.79 µM | NCI-H522 21.6 µM | OVCAR-8 5.36 µM | PC-3 10.2 µM | RXF 393 2.14 µM | SF-268 6 µM | SF-539 16.9 µM | SK-MEL-5 2.43 µM

CCC(C)C1=C(OC(C)=O)[N+]2([O-])Oc3ccc(-c4c(OC(C)=O)c(OC(C)=O)c(-c5ccc(OC(C)=O)cc5)c(OC(C)=O)c4OC(C)=O)cc3OC2(C(C)CC)C(=O)N1OC(C)=O (stereo not drawn)
inactive: ACHN 19.6 µM | CCRF-CEM 9.57 µM | EKVX 16.1 µM | HCT-116 9.62 µM | HL-60 7.71 µM | IGROV-1 11.5 µM | MDA-MB-231 40.3 µM | Malme-3M 18.7 µM | NCI-H23 20.6 µM | NCI-H522 8.53 µM | OVCAR-8 22.4 µM | PC-3 22.5 µM | RXF 393 29.6 µM | SF-268 12.4 µM | SF-539 42.3 µM | SK-MEL-5 11 µM | T47D 10.9 µM

C=C[C@@]1(C)CC(=O)[C@]2(O)[C@@]3(C)[C@@H](OC(C)=O)CCC(C)(C)[C@@H]3[C@H](O)[C@H](OC(C)=O)[C@@]2(C)O1
inactive: ACHN > 100 µM | EKVX > 100 µM | HCT-116 > 100 µM | HOP-92 > 100 µM | IGROV-1 > 100 µM | MDA-MB-231 > 100 µM | NCI-H23 > 100 µM | OVCAR-8 > 100 µM | PC-3 > 100 µM | SF-539 > 100 µM | T47D > 100 µM

C/C=C(/COC(C)=O)C(=O)OC1C=C(C=O)C(C)(C)C=C1C (stereo not drawn)
inactive: ACHN > 100 µM | CCRF-CEM 37.7 µM | EKVX > 100 µM | HCT-116 > 100 µM | HL-60 45.1 µM | HOP-92 > 100 µM | Hs-578T > 100 µM | IGROV-1 96.6 µM | MDA-MB-231 > 100 µM | Malme-3M > 100 µM | NCI-H23 > 100 µM | NCI-H522 > 100 µM | OVCAR-8 > 100 µM | PC-3 > 100 µM | SF-268 > 100 µM | SF-539 > 100 µM | SK-MEL-5 > 100 µM | T47D > 100 µM

Clc1ccccc1C(SCc1ccccc1)SCc1ccccc1
inactive: ACHN > 100 µM | CCRF-CEM > 100 µM | EKVX 39.6 µM | HCT-116 > 100 µM | HL-60 64.7 µM | HOP-92 > 100 µM | IGROV-1 > 100 µM | Malme-3M > 100 µM | NCI-H23 > 100 µM | NCI-H522 > 100 µM | OVCAR-8 > 100 µM | PC-3 > 100 µM | RXF 393 > 100 µM | SF-268 > 100 µM | SF-539 > 100 µM | SK-MEL-5 > 100 µM
